Results taken from patent publication US5444042A, “Method of treatment of neurodegeneration with calpain inhibitors” (Cortex Pharmaceuticals, priority 1994, dated 1995).
Entries after “also recorded” stand apart in the source; their conditions may differ. Where two headings read alike, the source gives them in different places. Where a SMILES comes first, the peptide text is derived from it. The star is where a group is joined. Boc = CC(C)(C)OC(=O)*; CH2Cl = ClC*

Columns and labels:
[1] = system: Calpain in crude brain extracts; experiment: Ca2+-stimulated spectrin proteolysis in crude brain extracts (Example 2); type: biochemical; conditions: for inhibition of spectrin proteolysis in crude brain extracts: 100 μM
How it was run: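 Brain tissue was homogenized in 10 mM Tris pH 7.4, 0.32 M sucrose, 1 mM EGTA and 1 mM DTT, and nuclei and debris were removed. Calpain activity was scored as Ca^2+-stimulated proteolysis of endogenous spectrin.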

[2] = system: Calpain within platelets; experiment: Platelet membrane permeation assay, spectrin proteolysis (Examples 4A, 4B); type: cell-based, rat; conditions: for inhibition of Calpain within platelets: 100 μM, A23187 1 μM; for IC50: concentration at which 50% of the Calpain activation present in controls occurred
How it was run: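 Rat (Sprague-Dawley) platelets at 10^7 cells/ml in HEPES buffer pH 7.4, preincubated 5 min with inhibitor, then 5 min with 1 μM A23187 to activate calpain. Spectrin proteolysis assessed by SDS-PAGE and anti-spectrin immunoblot, quantified by densitometry.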

[3] = target: T1, calpain II from rabbit muscle (Oryctolagus cuniculus, UniProt P06814); experiment: Calpain II Ki (Table 1B(i)); type: biochemical
T1 sequence (P06814 1-422): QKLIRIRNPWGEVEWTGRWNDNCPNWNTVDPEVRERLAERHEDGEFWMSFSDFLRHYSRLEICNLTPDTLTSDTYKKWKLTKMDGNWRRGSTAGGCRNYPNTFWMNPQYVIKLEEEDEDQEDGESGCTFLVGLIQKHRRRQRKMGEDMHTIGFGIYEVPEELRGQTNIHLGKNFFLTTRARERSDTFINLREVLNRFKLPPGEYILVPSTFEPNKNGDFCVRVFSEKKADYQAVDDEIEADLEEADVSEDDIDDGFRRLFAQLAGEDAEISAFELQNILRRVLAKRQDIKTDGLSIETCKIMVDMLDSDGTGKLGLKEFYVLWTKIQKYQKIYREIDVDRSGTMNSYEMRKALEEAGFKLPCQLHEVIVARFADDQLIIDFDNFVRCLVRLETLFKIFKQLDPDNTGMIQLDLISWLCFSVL
T1 sequence (P06813 1-266 partner): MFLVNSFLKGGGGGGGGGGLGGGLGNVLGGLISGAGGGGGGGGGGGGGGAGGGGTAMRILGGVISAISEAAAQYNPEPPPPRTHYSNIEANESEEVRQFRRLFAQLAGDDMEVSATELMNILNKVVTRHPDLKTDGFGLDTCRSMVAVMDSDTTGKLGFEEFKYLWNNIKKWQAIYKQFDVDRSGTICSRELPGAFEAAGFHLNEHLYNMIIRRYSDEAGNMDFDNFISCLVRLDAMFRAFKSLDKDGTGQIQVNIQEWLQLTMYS
Experimental: The Peptide Keto-Compounds are reversible inhibitors of Calpains and other thiol proteases. […] Cathepsin B from bovine spleen was assayed using Z-[…]-nitrophenylphosphate as substrate. […] The Ki value for the inhibition of Calpains and cathepsin B by several Peptide Keto-Compounds are shown in μM (micromolar). The values for leupeptin, which is commercially available from Calbiochem of La Jolla, Calif., are shown for comparison.

[4] = target: T2, Cathepsin B from bovine spleen (Bos taurus, UniProt P07688); experiment: Cathepsin B Ki (Table 1B(i)); type: biochemical; conditions: substrate Z-Lys-4-nitrophenylphosphate
T2 construct: Cathepsin B from bovine spleen was assayed using Z-Lys-4-nitrophenylphosphate as substrate; from tissue; host or cells: bovine spleen
Experimental: The Peptide Keto-Compounds are reversible inhibitors of Calpains and other thiol proteases. […] Cathepsin B from bovine spleen was assayed using Z-Lys-4-nitrophenylphosphate as substrate.
The Ki value for the inhibition of Calpains and cathepsin B by several Peptide Keto-Compounds are shown in μM (micromolar). The values for leupeptin, which is commercially available from Calbiochem of La Jolla, Calif., are shown for comparison.

[5] = Stability in plasma; type: in vitro ADME; conditions: unit assumed
Source text: We determined the haft-life of several Peptide Keto-Compounds in both plasma and liver homogenates.

[6] = Suc-Leu-Tyr-amidomethylcoumarin, HEPES pH 7.2, read-out: Ki Calpain II

| SMILES | inhibition of spectrin proteolysis in crude brain extracts [1] | inhibition of Calpain within platelets [2] | Ki [3, 6] | Ki [4] | t1/2 plasma [5] | IC50 [2] | Ki [3] | inhibition in the system of Example 2 ([1]; concentration not given) | effect on intracellular (platelet) Calpain ([2]; concentration not given) |
| --- | --- | --- | --- | --- | --- | --- | --- | --- | --- |
| CCC(NC(=O)[C@@H]1CCCN1C(=O)[C@H](C)NC(=O)[C@H](C)NC(=O)CCC(=O)OC)C(=O)C(=O)OC (mixture of isomers) [MeO-Suc-Ala-Ala-Pro-Abu-COOMe, MeO-Suc-Ala-Ala-Pro-DL-Abu-CO2 Me] | significant inhibition | significant inhibition |  |  |  |  |  |  |  |
| CCOC(=O)C(=O)C(CC)NC(=O)[C@H](C)NC(=O)[C@H](C)NC(=O)OCc1ccccc1 (mixture of isomers) [Z-Ala-Ala-DL-Abu-COOEt, Z-Ala-Ala-DL-Abu-CO2 Et] | significant inhibition | significant inhibition | 200 µM |  |  |  |  |  |  |
| CCOC(=O)C(=O)[C@H](CC)NC(=O)[C@H](CC(C)C)NC(=O)OCc1ccccc1 (racemic) [Z-Leu-Abu-COOEt, Z-Leu-DL-Abu-COOEt] | significant inhibition | significant inhibition | 0.4 µM | 14 µM | 2.8 min | 42 µM |  |  |  |
| CCCC(NC(=O)[C@H](CC(C)C)NC(=O)OCc1ccccc1)C(=O)C(=O)OCC (mixture of isomers) [Z-Leu-Nva-COOEt, Z-Leu-DL-Nva-COOEt] | significant inhibition | significant inhibition | 1.2 µM | 30 µM | 2.8 min | 40 µM |  |  |  |
| CC(C)CC(NC(=O)CNC(=O)OC(C)(C)C)C(=O)NC(Cc1ccccc1)C(=O)CCl (stereo not drawn) [Boc-Gly-Leu-Phe-CH2 Cl] (Boc-Gly-Leu-Phe-CH2Cl; configuration not given here) | significant inhibition | significant inhibition |  |  |  |  |  |  |  |
| N=C(N)SCCCOc1oc(=O)c2ccccc2c1Cl [CiTprOIC, 4-chloro-3-(3-isothiureidopropoxy)isocoumarin] | significant inhibition | significant inhibition |  |  |  |  |  |  |  |
| CC(=O)N[C@@H](CC(C)C)C(=O)N[C@@H](CC(C)C)C(=O)N[C@H](C=O)CCCNC(=N)N [Leupeptin, Ac-Leu-Leu-Arg-H, reference compound] |  |  |  | 6 µM |  |  | 0.43 µM | showed inhibition | little effect; also recorded: failed to exhibit Calpain inhibitory activity |
| N=C(N)SCCCOc1oc(=O)c2cc(N)ccc2c1Cl [NH2 -CiTPrOIC (ACITIC), 7-amino-4-chloro-3-(3-isothiureidopropoxy)isocoumarin] | significant inhibition | significant inhibition |  |  |  |  |  |  |  |
| CCCCC(NC(=O)C(CC(C)C)NC(=O)OCc1ccccc1)C(=O)C(=O)OCC (stereo not drawn) [Z-Leu-Nle-COOEt, Z-Leu-NLeu-CO2 Et] | significant inhibition | significant inhibition | 0.18 µM | 18 µM | 3.7 min | 20 µM |  |  |  |
| CCOC(=O)C(=O)C(Cc1ccccc1)NC(=O)C(CC(C)C)NC(=O)OCc1ccccc1 (stereo not drawn) [Z-Leu-Phe-COOEt] | significant inhibition | significant inhibition | 0.4 µM | > 50 µM | 7.8 min | 42 µM |  |  |  |
